Source: patent US20210330611A1, “THERAPY FOR NEUROLOGICAL DISEASES/DISORDERS” (priority 2020, published 2021)
Counter-ions that a name gives are not always drawn. Like-named read-outs stand apart in the source and are kept apart here.

Experiments:
[1] = test system: primary rat microglia;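 as to Fibrin % cell toxicity: share of dead cells sized under 150 µm2 at 10 µM in fibrin-stimulated microglia HTS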
[2] = test system: LPS-induced microglia activation; assay: Image-based assay of LPS-induced microglia activation (HTS and dose response); assay type: cell-based, rat
[3] = test system: fibrin-induced microglia activation; assay: Image-based assay of fibrin-induced microglia activation (HTS and dose response); assay type: cell-based, rat; settings: for inhibition at 10 µM: Rattus norvegicus, Microglia, read-out: Fibrin % inhibition
[4] = test system: primary rat microglia; remark: listed apart in the source;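 as to Fibrin % cell toxicity: share of dead cells sized under 150 µm2 at 10 µM in fibrin-stimulated microglia HTS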
[5] = test system: fibrin- and LPS-induced microglia activation; assay: cells; assay type: cell-based, rat
[6] = Rattus norvegicus, Microglia, 48 h; read-out: LPS % inhibition
[7] = primary microglia HTS, fibrin stimulation, cell size >800 μm2 as marker of activation
[8] = classification by fibrin and LPS inhibition in HTS
[9] = Rattus norvegicus, Microglia, primary microglia HTS, LPS stimulation, compounds at 10 μM; read-out: LPS % inhibition
[10] = primary microglia HTS, fibrin stimulation, compounds at 10 μM
[11] = quadrant by fibrin and LPS inhibition, HTS at 10 μM
[12] = Rattus norvegicus, Microglia, primary microglia HTS, 10 μM, LPS-stimulated, cell size >800 μm^2 as marker of activation; read-out: LPS % inhibition
[13] = primary microglia HTS, 10 μM, fibrin-stimulated, cell size >800 μm^2 as marker of activation
[14] = HTS of 1907 compounds, quadrant by fibrin and LPS inhibition
[15] = Rattus norvegicus, Microglia, read-out: LPS % inhibition

Compound	Fibrin % cell toxicity ([1]; rat) [%]	LPS % cell toxicity ([4]; rat) [%]	inhibition at 10 µM [3, 7] [%]	Quadrant (FIG. 5b) [5, 8]	inhibition at 10 µM [2, 12] [%]	inhibition at 10 µM [3, 13] [%]	Quadrant (FIG. 5b) [5, 14]	other results
CO[C@H]1/C=C/O[C@@]2(C)Oc3c(C)c(O)c4c(O)c(c(/C=N/N5CCN(C)CC5)c(O)c4c3C2=O)NC(=O)/C(C)=C\C=C\[C@H](C)[C@H](O)[C@@H](C)[C@@H](O)[C@@H](C)[C@H](OC(C)=O)[C@@H]1C [Rifampicin]	1	0						LPS % inhibition [2]: 7%; Fibrin % inhibition [3]: −21%; Quadrant (FIG. 5b) [5]: Q4
CO[C@H]1/C=C/O[C@@]2(C)Oc3c(C)c(O)c4c(O)c(c(/C=N/N5CCN(C)CC5)c(O)c4c3C2=O)NC(=O)/C(C)=C\C=C\[C@H](C)[C@H](O)[C@@H](C)[C@@H](O)[C@@H](C)[C@H](OC(C)=O)[C@@H]1C [Rifampin]	1	0						LPS % inhibition [2]: 20%; Fibrin % inhibition [3]: 8%; Quadrant (FIG. 5b) [5]: Q4
CC(C)c1nc(CN(C)C(=O)N[C@H](C(=O)N[C@@H](Cc2ccccc2)C[C@H](O)[C@H](Cc2ccccc2)NC(=O)OCc2cncs2)C(C)C)cs1 [Ritonavir]	0	0	-8	Q4				inhibition at 10 µM [2, 6]: 11%
CCCN1CCCC[C@H]1C(=O)Nc1c(C)cccc1C [Ropivacaine, Ropivacaine Hydrochloride]				Q4				Fibrin % cell toxicity [1]: 1%; LPS % inhibition [2]: 5%; Fibrin % inhibition [3, 7]: 18%; LPS % cell toxicity [4]: 0%
CN(CCOc1ccc(CC2SC(=O)NC2=O)cc1)c1ccccn1 (stereo not shown) [Rosiglitazone, Rosiglitazone Maleate]								Fibrin % cell toxicity [1]: 1%; LPS % inhibition [2]: 20%; Fibrin % inhibition [3]: 5%; LPS % cell toxicity [4]: 1%; Quadrant (FIG. 5b) [5]: Q4
O=C1NS(=O)(=O)c2ccccc21 [Saccharin]	0	0						inhibition at 10 µM ([2]; Rattus norvegicus, Microglia, 48 h, read-out: LPS % inhibition): 11%; inhibition at 10 µM [3]: -8%; Quadrant (FIG. 5b) [5]: Q4
CC(C)(C)NCC(O)c1ccc(O)c(CO)c1 (stereo not shown) [Salbutamol]	1	0	25	Q4				inhibition at 10 µM [2, 6]: 25%
NC(=O)c1ccccc1O [Salicylamide]	1	1	-20	Q4				inhibition at 10 µM [2, 6]: 16%
CC1CCC(NC(=O)N(CCCl)N=O)CC1 (stereo not shown) [Semustine]	1	0	-7	Q4				inhibition at 10 µM [2, 6]: 18%
CC(C)CC(N(C)C)C1(c2ccc(Cl)cc2)CCC1 (stereo not shown) [Sibutramine]	1	0	-12	Q4				inhibition at 10 µM ([2]; Rattus norvegicus, Microglia, 48 h, primary microglia HTS, LPS stimulation, cell size >800 μm2 as marker of activation; read-out: LPS % inhibition): 8%
CO[C@H]1C[C@@H]2CC[C@@H](C)[C@@](O)(O2)C(=O)C(=O)N2CCCC[C@H]2C(=O)O[C@H]([C@H](C)C[C@@H]2CC[C@@H](O)[C@H](OC)C2)CC(=O)[C@H](C)/C=C(\C)[C@@H](O)[C@@H](OC)C(=O)[C@H](C)C[C@H](C)/C=C/C=C/C=C/1C [Sirolimus]	4	1						inhibition at 10 µM [2, 9]: 81%; inhibition at 10 µM [3, 10]: 108%; Quadrant (FIG. 5b) [5, 11]: Q2
O=C([O-])[C@H](O)[C@@H](O)[C@H](O)[C@H](O)CO.[Na+] [Sodium Gluconate]	1	0	1	Q4				inhibition at 10 µM [2, 6]: 11%
CNC(=O)c1cc(Oc2ccc(NC(=O)Nc3ccc(Cl)c(C(F)(F)F)c3)cc2)ccn1 [Sorafenib]	1	1	-67	Q4				inhibition at 10 µM [2, 6]: 35%
CC(C)NCC(O)c1ccc(NS(C)(=O)=O)cc1 (stereo not shown) [Sotalol]	1	0	6	Q4				inhibition at 10 µM [2, 6]: 6%
[H]/N=C(/N)N[C@H]1[C@H](O)[C@@H](O)[C@H](O[C@@H]2O[C@@H](C)[C@](O)(C=O)[C@H]2O[C@@H]2O[C@@H](CO)[C@H](O)[C@@H](O)[C@@H]2NC)[C@@H](N/C(N)=N\[H])[C@@H]1O [Streptomycin Sulfate]	0	0			13	-46	Q4	
O=C1C[C@@H]2OCC=C3CN4CC[C@]56c7ccccc7N1[C@H]5[C@H]2[C@H]3C[C@H]46 [Strychnine]	1	0						inhibition at 10 µM [2, 15]: 18%; inhibition at 10 µM [3]: 1%; Quadrant (FIG. 5b) [5]: Q4
Nc1ccc(S(=O)(=O)Nc2ncccn2)cc1 [Sulfadiazine]	0	0						inhibition at 10 µM [2, 15]: 13%; inhibition at 10 µM [3]: -19%; Quadrant (FIG. 5b) [5]: Q4
Cc1cc(C)nc(NS(=O)(=O)c2ccc(N)cc2)n1 [Sulfamethazine]	0	0			14	-9	Q4	
Nc1ccc(S(=O)(=O)Nc2ccccn2)cc1 [Sulfapyridine]	1	0			20	-37	Q4	
O=C(O)c1cc(/N=N/c2ccc(S(=O)(=O)Nc3ccccn3)cc2)ccc1O [Sulfasalazine]	0	0			13	-29	Q4	
Nc1ccc(S(=O)(=O)Nc2nccs2)cc1 [Sulfathiazole]	0	0			9	-17	Q4	
CC1=C(CC(=O)O)c2cc(F)ccc2/C1=C\c1ccc([S+](C)[O-])cc1 (stereo not shown) [Sulindac]	1	0			6	21	Q4	
CCN(CC)CCNC(=O)c1c(C)[nH]c(/C=C2\C(=O)Nc3ccc(F)cc32)c1C [Sunitinib]	75	27						inhibition at 10 µM [2, 9]: 101%; inhibition at 10 µM [3, 10]: 106%; Quadrant (FIG. 5b) [5, 11]: Q2
O=c1n(Cl)c(=O)n(Cl)c(=O)n1Cl [Symclosene]	0	0			11	-13	Q4	
Nc1c2c(nc3ccccc13)CCCC2 [Tacrine]	1	0						inhibition at 10 µM [2, 15]: 5%; inhibition at 10 µM [3]: -2%; Quadrant (FIG. 5b) [5]: Q4
CC[C@@H](c1cccc(O)c1)[C@@H](C)CN(C)C [Tapentadol Hydrochloride]	1	0			12	-12	Q4	
